This note sets out measurements from patent US12398154B2, “Azaquinazoline pan-KRas inhibitors” (Mirati Therapeutics, Inc., priority 2020, dated 2025).

In general, IC50 refers to the point on the concentration scale where inhibition reaches its midpoint.

The target in one experiment is KRas G12D (Homo sapiens, UniProt P01116, G12D). The experiment is described as follows: biochemical.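 Further: TR-FRET displacement binding assay on KRas, read after a one-hour incubation at room temperature, IC50 fitted from percent-of-control values.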
Chain of KRas G12D (P01116 1-169 isoform P01116-2 G12D): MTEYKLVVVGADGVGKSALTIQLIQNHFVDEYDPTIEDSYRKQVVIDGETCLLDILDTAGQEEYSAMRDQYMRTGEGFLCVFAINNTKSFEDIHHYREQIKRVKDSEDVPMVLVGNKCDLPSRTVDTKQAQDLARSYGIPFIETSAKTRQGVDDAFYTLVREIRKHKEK
The next experiment addresses KRas G12V (Homo sapiens, UniProt P01116, G12V). The experiment is described as follows: biochemical.
The target of another experiment is KRas G12R (Homo sapiens, UniProt P01116, G12R). The experiment is described as follows: biochemical.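 Further: TR-FRET displacement assay of compound binding to KRas, read after one hour at room temperature, potency from a four-parameter fit of percent-of-control values.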
Chain of KRas G12R (P01116 1-169 isoform P01116-2 G12R): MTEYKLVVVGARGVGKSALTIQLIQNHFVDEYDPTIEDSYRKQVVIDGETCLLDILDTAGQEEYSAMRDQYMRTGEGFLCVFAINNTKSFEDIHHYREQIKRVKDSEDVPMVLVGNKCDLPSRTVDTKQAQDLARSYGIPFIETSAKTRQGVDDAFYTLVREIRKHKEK
In a further experiment the test system is pERK in MKN1 cells. The experiment is described as follows: Inhibition of KRas phosphorylation of ERK (Cisbio HTRF pERK assay). The settings on record: Homo sapiens, MKN-1, 3 h, read-out: Inhibition (HTRF IC50) of KRas-mediated Phosphorylation of ERK, MKN1. Background: Time-resolved FRET reads energy transfer from a long-lived donor to a nearby acceptor.
For a further experiment, the system named is pERK in PSN1 cells. Described as above. The settings on record: Homo sapiens, PSN1, 3 h, read-out: Inhibition (HTRF IC50) of KRas-mediated Phosphorylation of ERK, PSN1.
Another experiment concerns pERK in ASPC1 cells. The experiment is described as above. The settings on record: Homo sapiens, ASPC1, read-out: Inhibition (HTRF IC50) of KRas-mediated Phosphorylation of ERK, AsPC-1.
The subject of the next experiment is pERK in H727 cells. Described as above. The settings on record: Homo sapiens, NCI-H727, read-out: Inhibition (HTRF IC50) of KRas-mediated Phosphorylation of ERK, H727.
A further experiment relates to pERK in A549 cells. The description is as above. The settings on record: Homo sapiens, A549, read-out: Inhibition (HTRF IC50) of KRas-mediated Phosphorylation of ERK, A549.
Another experiment concerns pERK in H460 cells. The description is as above. The settings on record: Homo sapiens, NCI-H460, read-out: Inhibition (HTRF IC50) of KRas-mediated Phosphorylation of ERK, H460.
In a further experiment the test system is pERK in HCT116 cells. The experiment is described as above. The settings on record: Homo sapiens, HCT-116, read-out: Inhibition (HTRF IC50) of KRas-mediated Phosphorylation of ERK, HCT116.

Some results are limits rather than exact numbers.

Chain of KRas G12V (P01116 1-169 isoform P01116-2 G12V): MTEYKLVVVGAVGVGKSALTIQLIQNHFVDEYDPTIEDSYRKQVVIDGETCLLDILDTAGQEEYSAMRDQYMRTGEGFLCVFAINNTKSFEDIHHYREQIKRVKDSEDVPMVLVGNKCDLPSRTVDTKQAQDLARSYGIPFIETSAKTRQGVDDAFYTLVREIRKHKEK

Turning to `CCc1c(F)ccc2cc(O)cc(-c3ncc4c(N5CCCC6(CCC6O)C5)nc(OC[C@@]56CCCN5C[C@H](F)C6)nc4c3F)c12` (stereo partly drawn) [Example 351, 6-(7-(8-ethyl-7-fluoro-3-hydroxynaphthalen-1-yl)-8-fluoro-2-(((2R,7aS)-2-fluorohexahydro-1H-pyrrolizin-7a-yl)methoxy)pyrido[4,3-d]pyrimidin-4-yl)-6-azaspiro[3.5]nonan-1-ol], the IC50 is 13 nM at KRas G12D; 15 nM at KRas G12V; 11 nM on KRas G12R; 48 nM in the experiment with pERK in MKN1 cells; 7180 nM with pERK in PSN1 cells; 228 nM in the experiment on pERK in ASPC1 cells. The IC50 came out at 551 nM in the experiment with pERK in H727 cells, 185 nM in the experiment with pERK in A549 cells, 182 nM in the experiment with pERK in H460 cells and 346 nM in the experiment with pERK in HCT116 cells.

As to `CCc1c(F)ccc2cc(O)cc(-c3ncc4c(N5CCCC6(CNS(=O)(=O)N6)C5)nc(OCC5(CN(C)C)CC5)nc4c3F)c12` (stereo not shown) [Example 364, 7-(2-((1-((dimethylamino)methyl)cyclopropyl)methoxy)-7-(8-ethyl-7-fluoro-3-hydroxynaphthalen-1-yl)-8-fluoropyrido[4,3-d]pyrimidin-4-yl)-2-thia-1,3,7-triazaspiro[4.5]decane 2,2-dioxide], the IC50 against KRas G12D was ≤ 2 nM; on KRas G12V, ≤ 2 nM; against KRas G12R, ≤ 2 nM; in the experiment with pERK in MKN1 cells, 26 nM; with pERK in PSN1 cells, ≥ 10000 nM; with pERK in ASPC1 cells it was 121 nM. Moreover, the IC50 in the experiment on pERK in H727 cells came to 578 nM; with pERK in A549 cells it was 219 nM; with pERK in H460 cells, 117 nM; with pERK in HCT116 cells, 645 nM.

As for `C#Cc1c(F)ccc2cc(O)cc(-c3ncc4c(N5CC6CC(O)CC5C6)nc(OC[C@@]56CCCN5C[C@H](F)C6)nc4c3F)c12` (stereo partly drawn) [Example 390, 6-(7-(8-ethynyl-7-fluoro-3-hydroxynaphthalen-1-yl)-8-fluoro-2-(((2R,7aS)-2-fluorohexahydro-1H-pyrrolizin-7a-yl)methoxy)pyrido[4,3-d]pyrimidin-4-yl)-6-azabicyclo[3,2,1]octan-3-ol], the IC50 is ≤ 2 nM against KRas G12D; ≤ 2 nM against KRas G12V; ≤ 2 nM on KRas G12R; 8 nM in the experiment on pERK in MKN1 cells; 748 nM in the experiment on pERK in PSN1 cells; 195 nM in the experiment on pERK in ASPC1 cells. The concentration for half-maximal inhibition (IC50) was 16 nM in the experiment with pERK in H727 cells, 114 nM with pERK in A549 cells, 175 nM in the experiment with pERK in H460 cells and 190 nM in the experiment on pERK in HCT116 cells.

Consider `C#Cc1c(F)ccc2cc(O)cc(-c3ncc4c(N5CCCn6nc(N)cc6C5)nc(OC[C@@]56CCCN5C[C@H](F)C6)nc4c3F)c12` [Example 394, 4-(4-(2-amino-7,8-dihydro-4H-pyrazolo[1,5-a][1,4]diazepin-5(6H)-yl)-8-fluoro-2-(((2R,7aS)-2-fluorohexahydro-1H-pyrrolizin-7a-yl)methoxy)pyrido[4,3-d]pyrimidin-7-yl)-5-ethynyl-6-fluoronaphthalen-2-ol], for which the IC50 against KRas G12D is ≤ 2 nM; against KRas G12V, ≤ 2 nM; against KRas G12R, ≤ 2 nM; in the experiment on pERK in MKN1 cells it was 46 nM; in the experiment with pERK in PSN1 cells, ≥ 10000 nM; in the experiment with pERK in ASPC1 cells it was 158 nM. Further, the concentration for half-maximal inhibition (IC50) in the experiment with pERK in H727 cells is 368 nM; in the experiment on pERK in A549 cells it was 567 nM; in the experiment on pERK in H460 cells, 1070 nM; with pERK in HCT116 cells, 1720 nM.

Consider `Oc1cc(-c2ncc3c(N4CC5CC(O)CC4C5)nc(OC[C@@]45CCCN4C[C@H](F)C5)nc3c2F)c2c(Br)c(F)ccc2c1` (stereo partly drawn) [Example 403, 6-(7-(8-bromo-7-fluoro-3-hydroxynaphthalen-1-yl)-8-fluoro-2-(((2R,7aS)-2-fluorohexahydro-1H-pyrrolizin-7a-yl)methoxy)pyrido[4,3-d]pyrimidin-4-yl)-6-azabicyclo[3.2.1]octan-3-ol], for which the IC50 on KRas G12D is 6 nM; on KRas G12V, ≤ 2 nM; at KRas G12R, ≤ 2 nM; in the experiment on pERK in MKN1 cells, 20 nM; in the experiment with pERK in PSN1 cells, 3820 nM; in the experiment on pERK in ASPC1 cells, 426 nM. Also, the IC50 in the experiment with pERK in H727 cells turned out to be 79 nM; in the experiment with pERK in A549 cells, 96 nM; in the experiment on pERK in H460 cells, 182 nM; with pERK in HCT116 cells it was 487 nM.

Turning to `O=C1CC2(CCCN(c3nc(OC[C@@]45CCCN4C[C@H](F)C5)nc4c(F)c(-c5cc(O)cc6ccc(F)c(Br)c56)ncc34)C2)N1` (stereo partly drawn) [Example 405, 6-(7-(8-bromo-7-fluoro-3-hydroxynaphthalen-1-yl)-8-fluoro-2-(((2R,7aS)-2-fluorohexahydro-1H-pyrrolizin-7a-yl)methoxy)pyrido[4,3-d]pyrimidin-4-yl)-1,6-diazaspiro[3.5]nonan-2-one], the half-inhibitory concentration (IC50) was ≤ 2 nM against KRas G12D; ≤ 2 nM on KRas G12V; ≤ 2 nM against KRas G12R; 45 nM in the experiment on pERK in MKN1 cells; 6730 nM with pERK in PSN1 cells; 238 nM with pERK in ASPC1 cells. Also, the IC50 in the experiment with pERK in H727 cells is 114 nM; in the experiment with pERK in A549 cells, 247 nM; with pERK in H460 cells, 155 nM; in the experiment with pERK in HCT116 cells, 2210 nM.

Regarding `CCc1c(F)ccc2cc(O)cc(-c3ncc4c(N5CCCC6(COC(=O)N6)C5)nc(OC[C@@]56CCCN5C[C@H](F)C6)nc4c3F)c12` (stereo partly drawn) [Example 478, 7-(7-(8-ethyl-7-fluoro-3-hydroxynaphthalen-1-yl)-8-fluoro-2-(((2R,7aS)-2-fluorohexahydro-1H-pyrrolizin-7a-yl)methoxy)pyrido[4,3-d]pyrimidin-4-yl)-3-oxa-1,7-diazaspiro[4.5]decan-2-one], the concentration for half-maximal inhibition (IC50) was ≤ 2 nM on KRas G12D; ≤ 2 nM against KRas G12V; 5 nM on KRas G12R; 80 nM in the experiment with pERK in MKN1 cells; ≥ 10000 nM in the experiment with pERK in PSN1 cells; 192 nM with pERK in ASPC1 cells. The IC50 in the experiment on pERK in H727 cells was determined as 871 nM; in the experiment on pERK in A549 cells, 1250 nM; in the experiment with pERK in H460 cells, 713 nM; with pERK in HCT116 cells, 5430 nM.

For the molecule `CCc1c(F)ccc2cc(O)cc(-c3ncc4c(N5CCOCC6(COC6)C5)nc(OC[C@@]56CCCN5C[C@H](F)C6)nc4c3F)c12` [Example 480, 5-ethyl-6-fluoro-4-(8-fluoro-2-(((2R,7aS)-2-fluorohexahydro-1H-pyrrolizin-7a-yl)methoxy)-4-(2,6-dioxa-9-azaspiro[3.6]decan-9-yl)pyrido[4,3-d]pyrimidin-7-yl)naphthalen-2-ol], the half-maximal inhibitory concentration (IC50) is 38 nM against KRas G12D; 7 nM against KRas G12V; 6 nM on KRas G12R; 6 nM in the experiment on pERK in MKN1 cells; ≥ 10000 nM with pERK in PSN1 cells; 240 nM in the experiment with pERK in ASPC1 cells. For the same molecule, the IC50 amounted to 100 nM in the experiment on pERK in H727 cells, 215 nM in the experiment on pERK in A549 cells, 47 nM in the experiment with pERK in H460 cells and 111 nM with pERK in HCT116 cells.

With `CCc1c(F)ccc2cc(O)cc(-c3ncc4c(N5C[C@H](O)CC[C@@H](O)C5)nc(OC[C@@]56CCCN5C[C@H](F)C6)nc4c3F)c12` [Example 490, (3R,6R)-1-(7-(8-ethyl-7-fluoro-3-hydroxynaphthalen-1-yl)-8-fluoro-2-(((2R,7aS)-2-fluorohexahydro-1H-pyrrolizin-7a-yl)methoxy)pyrido[4,3-d]pyrimidin-4-yl)azepane-3,6-diol], the IC50 on KRas G12D is ≤ 2 nM; against KRas G12V it was ≤ 2 nM; at KRas G12R, 3 nM; with pERK in MKN1 cells, 41 nM; with pERK in PSN1 cells, ≥ 10000 nM; with pERK in ASPC1 cells it was 395 nM. For the same molecule, the IC50 in the experiment with pERK in H727 cells was found to be 205 nM; in the experiment on pERK in A549 cells it was 298 nM; in the experiment on pERK in H460 cells it was 305 nM; in the experiment with pERK in HCT116 cells, 368 nM.

With `CCc1c(F)ccc2cc(O)cc(-c3ncc4c(N5CCOCC(OC)C5)nc(OC[C@@]56CCCN5C[C@H](F)C6)nc4c3F)c12` (stereo partly drawn) [Example 499, 5-ethyl-6-fluoro-4-(8-fluoro-2-(((2R,7aS)-2-fluorotetrahydro-1H-pyrrolizin-7a(5H)-yl)methoxy)-4-(6-methoxy-1,4-oxazepan-4-yl)pyrido[4,3-d]pyrimidin-7-yl)naphthalen-2-ol], the IC50 on KRas G12D is 27 nM; against KRas G12V it was 8 nM; at KRas G12R, 6 nM; with pERK in MKN1 cells, 13 nM; in the experiment on pERK in PSN1 cells, ≥ 10000 nM; in the experiment on pERK in ASPC1 cells, 109 nM. Also, the IC50 with pERK in H727 cells came out at 100 nM; in the experiment with pERK in A549 cells it was 145 nM; in the experiment with pERK in H460 cells, 162 nM; in the experiment with pERK in HCT116 cells it was 474 nM.
